Target: T1, Human CaV2.2 channels (Homo sapiens, UniProt Q00975)
T1 construct: expressed in transfected cells
Assay: Fluorescent assay for CaV2.2 channels using potassium depolarization to induce channel opening (FLIPR, Fluo-4)
Assay type: cell-based
Details: 3 μM test compound, 30 mM KCl, HEK293 cells stably expressing human CaV2.2; read-out: %-Inhib (CaV2.2) @3 μM @30 mM KCl
How it was run: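 Channel block was read as the baseline-normalized peak Ca²⁺ signal (Fluo-4, 480/535 nm) after a high-KCl depolarizing addition (210 mM KCl buffer). Beforehand, compound sat 15 min at 25 °C on HEK293 cells carrying human CaV2.2, α2δ/β subunits and Kir2.3, in pH 7.4 buffer with 30 mM KCl.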

T1 sequence (Q00975 whole entry): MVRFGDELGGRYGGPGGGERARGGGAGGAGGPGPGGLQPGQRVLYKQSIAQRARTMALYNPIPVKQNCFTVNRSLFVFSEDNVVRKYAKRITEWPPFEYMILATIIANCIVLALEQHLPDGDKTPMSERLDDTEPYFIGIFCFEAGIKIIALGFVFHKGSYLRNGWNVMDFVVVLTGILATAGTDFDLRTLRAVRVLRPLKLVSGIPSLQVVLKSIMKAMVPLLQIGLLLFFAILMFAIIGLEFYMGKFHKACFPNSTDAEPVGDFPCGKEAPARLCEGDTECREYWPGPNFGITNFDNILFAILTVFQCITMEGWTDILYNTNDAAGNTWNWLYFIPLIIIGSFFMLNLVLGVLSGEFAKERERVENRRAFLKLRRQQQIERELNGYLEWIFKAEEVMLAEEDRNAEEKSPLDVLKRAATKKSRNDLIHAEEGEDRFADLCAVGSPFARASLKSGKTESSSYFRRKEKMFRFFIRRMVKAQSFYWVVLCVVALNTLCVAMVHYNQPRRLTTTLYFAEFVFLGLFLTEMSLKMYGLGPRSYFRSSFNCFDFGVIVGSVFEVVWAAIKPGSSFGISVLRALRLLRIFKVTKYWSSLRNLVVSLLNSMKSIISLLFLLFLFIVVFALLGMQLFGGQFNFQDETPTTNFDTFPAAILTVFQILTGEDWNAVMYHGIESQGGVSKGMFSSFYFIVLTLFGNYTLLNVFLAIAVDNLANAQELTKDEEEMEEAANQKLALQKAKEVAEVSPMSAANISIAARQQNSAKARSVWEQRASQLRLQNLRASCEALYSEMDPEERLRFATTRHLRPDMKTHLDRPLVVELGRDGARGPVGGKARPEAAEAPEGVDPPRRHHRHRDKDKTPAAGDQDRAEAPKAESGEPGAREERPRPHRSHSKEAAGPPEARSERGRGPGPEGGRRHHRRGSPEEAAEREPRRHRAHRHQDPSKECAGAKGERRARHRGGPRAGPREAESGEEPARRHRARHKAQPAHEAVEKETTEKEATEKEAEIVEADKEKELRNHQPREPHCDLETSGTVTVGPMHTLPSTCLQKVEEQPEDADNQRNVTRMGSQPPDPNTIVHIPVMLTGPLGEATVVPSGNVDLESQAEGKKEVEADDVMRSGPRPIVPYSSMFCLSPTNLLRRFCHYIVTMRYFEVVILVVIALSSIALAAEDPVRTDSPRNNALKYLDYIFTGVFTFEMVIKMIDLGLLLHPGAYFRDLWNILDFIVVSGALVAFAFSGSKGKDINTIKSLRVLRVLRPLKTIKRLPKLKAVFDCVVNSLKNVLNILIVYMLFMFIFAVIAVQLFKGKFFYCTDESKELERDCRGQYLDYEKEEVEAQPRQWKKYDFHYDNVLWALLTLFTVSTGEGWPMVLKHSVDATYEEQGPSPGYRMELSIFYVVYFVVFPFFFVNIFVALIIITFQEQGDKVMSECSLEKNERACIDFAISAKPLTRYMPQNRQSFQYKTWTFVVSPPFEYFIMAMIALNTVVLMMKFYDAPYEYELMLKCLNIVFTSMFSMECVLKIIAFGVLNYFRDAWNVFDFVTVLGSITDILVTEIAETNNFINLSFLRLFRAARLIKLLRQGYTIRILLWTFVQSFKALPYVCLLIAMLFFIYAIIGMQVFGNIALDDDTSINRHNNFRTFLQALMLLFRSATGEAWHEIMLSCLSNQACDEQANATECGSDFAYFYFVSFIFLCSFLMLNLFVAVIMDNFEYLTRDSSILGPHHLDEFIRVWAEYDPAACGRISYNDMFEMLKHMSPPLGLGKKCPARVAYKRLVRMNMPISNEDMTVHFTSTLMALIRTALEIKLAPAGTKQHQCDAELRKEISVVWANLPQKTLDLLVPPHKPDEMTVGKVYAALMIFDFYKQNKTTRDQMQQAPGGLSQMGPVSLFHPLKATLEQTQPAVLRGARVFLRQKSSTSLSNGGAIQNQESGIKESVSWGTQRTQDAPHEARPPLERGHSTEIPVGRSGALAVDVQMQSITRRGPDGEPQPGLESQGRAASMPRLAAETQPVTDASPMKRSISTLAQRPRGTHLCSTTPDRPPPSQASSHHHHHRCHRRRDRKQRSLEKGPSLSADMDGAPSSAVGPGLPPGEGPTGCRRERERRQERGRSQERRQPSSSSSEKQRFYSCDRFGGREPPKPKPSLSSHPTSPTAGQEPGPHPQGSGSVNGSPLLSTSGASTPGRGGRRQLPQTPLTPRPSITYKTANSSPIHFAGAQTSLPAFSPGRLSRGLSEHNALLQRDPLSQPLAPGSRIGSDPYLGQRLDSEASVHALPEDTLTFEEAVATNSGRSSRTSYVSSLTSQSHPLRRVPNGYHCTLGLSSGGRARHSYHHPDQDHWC
T1 sequence (P54289 25-1103, further chain): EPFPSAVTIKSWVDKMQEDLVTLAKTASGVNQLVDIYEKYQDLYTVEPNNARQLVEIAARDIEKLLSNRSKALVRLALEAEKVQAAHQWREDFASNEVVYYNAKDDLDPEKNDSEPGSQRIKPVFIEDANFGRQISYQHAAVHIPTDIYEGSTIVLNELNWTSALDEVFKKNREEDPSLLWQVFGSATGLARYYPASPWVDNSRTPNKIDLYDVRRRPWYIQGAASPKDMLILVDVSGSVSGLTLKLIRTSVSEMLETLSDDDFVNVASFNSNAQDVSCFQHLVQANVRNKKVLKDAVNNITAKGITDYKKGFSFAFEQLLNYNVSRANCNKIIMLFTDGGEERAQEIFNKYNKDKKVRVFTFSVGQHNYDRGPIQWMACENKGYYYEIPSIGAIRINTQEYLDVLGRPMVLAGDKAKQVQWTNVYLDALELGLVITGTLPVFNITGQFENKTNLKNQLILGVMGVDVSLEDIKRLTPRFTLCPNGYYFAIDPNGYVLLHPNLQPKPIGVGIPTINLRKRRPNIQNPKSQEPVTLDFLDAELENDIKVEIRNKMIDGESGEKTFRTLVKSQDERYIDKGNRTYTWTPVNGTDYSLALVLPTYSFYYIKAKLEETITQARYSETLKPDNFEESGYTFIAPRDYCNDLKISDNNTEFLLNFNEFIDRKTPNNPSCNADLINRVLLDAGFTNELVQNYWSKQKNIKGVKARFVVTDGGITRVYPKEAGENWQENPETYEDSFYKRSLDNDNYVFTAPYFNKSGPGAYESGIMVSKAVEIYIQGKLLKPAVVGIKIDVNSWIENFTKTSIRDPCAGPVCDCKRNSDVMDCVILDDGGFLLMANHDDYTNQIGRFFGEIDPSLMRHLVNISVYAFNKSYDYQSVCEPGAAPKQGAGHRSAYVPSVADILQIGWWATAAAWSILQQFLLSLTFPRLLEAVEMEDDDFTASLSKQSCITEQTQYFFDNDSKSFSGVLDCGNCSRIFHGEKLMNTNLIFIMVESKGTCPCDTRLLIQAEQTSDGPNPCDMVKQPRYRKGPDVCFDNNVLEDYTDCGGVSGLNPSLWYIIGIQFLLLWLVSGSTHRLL
T1 sequence (P54284 whole entry, further chain): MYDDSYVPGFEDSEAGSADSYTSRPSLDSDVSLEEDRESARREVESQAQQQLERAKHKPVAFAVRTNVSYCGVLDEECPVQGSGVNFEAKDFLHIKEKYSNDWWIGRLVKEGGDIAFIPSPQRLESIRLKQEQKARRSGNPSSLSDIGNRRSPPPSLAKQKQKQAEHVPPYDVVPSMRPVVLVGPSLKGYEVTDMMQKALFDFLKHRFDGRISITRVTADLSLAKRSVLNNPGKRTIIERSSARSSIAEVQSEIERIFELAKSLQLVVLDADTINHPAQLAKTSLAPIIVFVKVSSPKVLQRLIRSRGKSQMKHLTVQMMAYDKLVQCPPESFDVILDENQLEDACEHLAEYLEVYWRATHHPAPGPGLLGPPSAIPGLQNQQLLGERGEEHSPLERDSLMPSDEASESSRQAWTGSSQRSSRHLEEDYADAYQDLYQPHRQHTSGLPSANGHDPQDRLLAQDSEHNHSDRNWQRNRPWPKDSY

Row | SMILES | inhibition at 3 µM
1 | Cc1c(-c2ccc(OCC(F)(F)F)cc2)c(C(=O)N2CCOCC2)n(Cc2ccccc2)c1C(F)(F)F [SC-263, [1-Benzyl-4-methyl-3-[4-(2,2,2-trifluoro-ethoxy)-phenyl]-5-(trifluoromethyl)-1H-pyrrol-2-yl]-morpholin-4-yl-methanone] | 75 to 95%
2 | Cc1c(-c2ccc(C#N)cc2F)c(C(=O)N2CCOCC2)n(Cc2ccccc2)c1C(F)(F)F [SC-264, 4-[1-Benzyl-4-methyl-2-(morpholine-4-carbonyl)-5-(trifluoromethyl)-1H-pyrrol-3-yl]-3-fluoro-benzonitrile] | 75 to 95%
3 | CN(CC(C)(C)C)C(=O)c1c(-c2ccc(Cl)cc2)cc(C(F)(F)F)n1Cc1cccc(S(C)(=O)=O)c1 [SC-266, 3-(4-Chlorophenyl)-N-(2,2-dimethyl-propyl)-N-methyl-1-[(3-methylsulfonyl-phenyl)-methyl]-5-(trifluoromethyl)-1H-pyrrole-2-carboxylic acid amide] | 75 to 95%

— patent US9302988B2, “Fluoromethyl-substituted pyrrole carboxamides” (GRÜNENTHAL GMBH, priority 2012, dated 2016)
